US8629178B2, “Sodium tanshinone IIA sulfonate hydrate and preparation method and use thereof” (priority 2009, dated 2014)

Tests used:
Hygroscopicity test = format: physicochemical; conditions: 25° C.; for Relative to 0 h, weight gain %: relative humidity 75%, sampling time 48 h
Excerpt: The hygroscopicity test performed according to the Pharmacopoeia of the People's Republic of China (2005 Edition) confirmed that the sodium tanshinone IIA sulfonate hydrate of the present invention is much lower than anhydrous sodium tanshinone IIA sulfonate.
Samples of sodium tanshinone IIA sulfonate hydrates and anhydrous sodium tanshinone IIA sulfonate: anhydrous sodium tanshinone IIA sulfonate and the hydrates of the present invention, about 5 g for each, were placed in dry watch glass with constant weight, precisely weighed, subjected to the test at 25° C. and a relative humidity (RH) of 75%, separately sampled at 0 h and 48 h of the test, and the percentages of weight gain due to hygroscopicity was calculated.

[1] = tested on: arrhythmia induced by calcium chloride in rats; test: Effects on arrhythmia induced by calcium chloride in rats; format: in vivo, SD rats; conditions: intravenous injection, 10 animals per group, 2.5% calcium chloride 100 mg/kg, hydrates 10 mg/kg, Quinidine 13.5 mg/kg
Description: 50 SD rats were provided, male and female, body weight 226±31 g, randomly divided into 5 groups, separately administered by intravenous injection with physiological saline, Quinidine, […] The rats were anaesthetized with 3% pentobarbital sodium 40 mg·kg^−1, fixed in supine position on operation table, injected via lingual vein for 6 minutes, quickly intravenously injected (completed injection in 5 s) with 2.5% calcium chloride 100 mg·kg^−1 (0.4 ml/100 g), the number of animal with ventricular fibrillation and the number of died animals were recorded.

[2] = tested on: ischemic reperfusion brain tissues of rats; test: Effects on rat ischemic reperfusion (NO, NOS, MDA, SOD in brain tissue); format: in vivo, Wistar rats; conditions: for Result of the ischemic reperfusion test in words: compared with sodium tanshinone IIA sulfonate 1.5 hydrate
Description: 36 Male Wistar rats, body weight 250-300 g, were randomly divided into 3 groups: sham operation group, ischemic reperfusion group, and group of drug of the invention, 12 rats per group. As for group of drug of the invention: the rats were peritoneally administered with sodium tanshinone IIA sulfonate 1.5 hydrate in physiological saline, does of 40 mg/kg, twice per day, for consecutive 7 days, and subjected to cerebral ischemia operation 60 min after the last administration; the rats of sham operation group and ischemic reperfusion group were administered with the same volume of isometric physiological saline, respectively.
The rats were anesthetized with 10% chloral hydrate (3.5 ml/kg) by peritoneal injection, fixed in supine position, modeled by the improved Zea Longa thread occlusion method in document [Journal of Shanghai Jiaotong University (Medicine), 2007, 27(10):1218-1222]; in the sham operation group, thread was merely inserted 10 mm, and other steps were the same as the model group, animals appeared operation-side Horner syndrome and opposite-side movement disorder were deemed as successfully established models. After successful establishment of models, the animals were administered in the same dose as above twice per day, and the sham operation group and ischemic reperfusion group were administered with the same volume of isometric physiological saline, respectively. The thread was drawn out 2 h after model establishment, the rats were executed 24 h after reperfusion, their brains were taken out quickly and weighed. Physiological saline was used to prepare 10% brain tissue homogenate solution at low temperature, centrifuged at low temperature, 3000 r/min for 10 min, the deposit was discarded, the supernatant was taken up and tested to determine SOD, MDA, NO, NOS contents or activities according to the specifications of the corresponding commercial SOD, MDA, NO, NOS kits, the results are shown in Table 4.

[3] = Accelerated stability test (increase of the relative substances by HPLC); format: physicochemical; conditions: RH75%, 30° C., lucifuge, sealed in ampoules, sampling time 6 month
Description: In addition, the accelerated stability test performed according to the Pharmacopoeia of the People's Republic of China (2005 Edition) confirmed that the sodium tanshinone IIA sulfonate hydrate crystal had better storage stability than anhydrous sodium tanshinone IIA sulfonate, and thus can be stably stored for a more longer period.
Under RH75%, 30° C. and lucifuge condition, the samples of sodium tanshinone IIA sulfonate hydrate crystals and anhydrous sodium tanshinone IIA sulfonate were separately sealed in ampoules for accelerated stability test, chromatographic conditions: column Kromasil C18 (250 mm×4.6 mm, 5 μm), mobile phase: methanol—0.02 mol/L potassium dihydrogen phosphate solution (adjusted with phosphoric acid to pH=4) (60:40), detection wavelength: 271 nm, flow rate: 1 ml/min, to measure increase extent of the relative substances (see results in Tables 1-2).

[4] = tested on: calcium paradox cardiac muscle tissue; test: Protection effects on calcium paradox cardiac muscle (ex vivo heart perfusion, Langendorff); design: species or system guinea pigs; conditions: hydrates 32 mg/L, Iproveratril 2.1 mg/L; for Calcium uptake, x ± S μmol/min/g, dry weight: cardiac muscle tissue; for Calcium uptake, x ± S μmol/min/g, dry weight / Protein release, x ± S mg/min/g, dry weight: 8 guinea pigs per group; for Protein release, x ± S mg/min/g, dry weight: coronary artery effluent of 20 min after calcium restored; for Calcium uptake decrease rate, % / Protein release decrease rate, %: relative to calcium paradox group
Description: 48 Healthy guinea pigs, body weight 280-360 g, were divided into 6 groups, 8 guinea pigs per group, separately comprising: normal control group, calcium paradox group, iproveratril positive control group, 3 drug-administrated groups, the animals were fasted for one night before test, intraperitoneally injected with heparin 0.5 mg/kg, intraperitoneally injected with pentobarbital sodium 30 mg/kg after 20 min, their chests were opened after anesthesia, and hearts were taken out quickly, immersed in Kreb's-Henseleit (K-H) perfusion solution as cooled with ice, after aortic cannulation, the hearts were placed in ex vivo heart perfusion device with constant temperature and constant pressure. […] The effluent of coronary artery of 20 min when calcium-containing perfusion solution was restored was collected, the protein release amounts mg/min/g drywt and cardiac muscle tissue calcium uptake μmol/g drywt in the collected coronary artery effluents were measured according to the reference document.

[5] = rat brain tissue homogenate, 40 mg/kg peritoneally twice per day, 2 h ischemia, 24 h reperfusion

Relative to 0 h, weight gain % (Hygroscopicity test) | Relative to 0 month, multiple of the relative substances [3] | Hygroscopicity in words (Hygroscopicity test; compared with the sodium tanshinone IIA sulfonate hydrates, RH 75%, 48 h) | Compound | Arrhythmic animal number (n), Heart arrest [1] | Arrhythmic animal number (n), Ventricular fibrillation [1] | MDA [2, 5] | NO [2, 5] | NOS [2, 5] | SOD [2, 5] | Calcium uptake, x ± S μmol/min/g, dry weight [4] | Protein release, x ± S mg/min/g, dry weight [4] | Calcium uptake decrease rate, % [4] | Protein release decrease rate, % [4] | Result of the ischemic reperfusion test in words [2]
4.12% | 0.25 | – | Sodium Tanshinone IIA Sulfonate 1.5 Hydrate | 6 n | 5 n | 2.26 ± 0.62 nmol/mL | 24 ± 6.35 µmol/L | 22 ± 5.31 U/ml | 245 ± 21.59 U/ml | 35.2 ± 2.8 μmol/min/g, dry weight | 2.4 ± 0.3 mg/min/g, dry weight | 26.1% | 52% | –
11.43% | 1.21 | much higher | Cc1c(S(=O)(=O)[O-])oc2c1C(=O)C(=O)c1c-2ccc2c1CCCC2(C)C.[Na+] [Anhydrous Sodium Tanshinone IIA Sulfonate, reference compound] | – | – | – | – | – | – | – | – | – | – | –
– | – | – | C=C[C@H]1C[N@@]2CC[C@H]1C[C@@H]2[C@@H](O)c1ccnc2ccc(OC)cc12 [Quinidine, reference compound] | 4 n | 6 n | – | – | – | – | – | – | – | – | –
1.25% | 0.31 | – | Sodium Tanshinone IIA Sulfonate 2.5 Hydrate | 5 n | 6 n | – | – | – | – | 35.4 ± 3.1 μmol/min/g, dry weight | 2.5 ± 0.2 mg/min/g, dry weight | 25.6% | 50% | results similar to those of the sodium tanshinone IIA sulfonate 1.5 hydrate
7.96% | 0.34 | – | Sodium Tanshinone IIA Sulfonate 0.5 Hydrate | 4 n | 5 n | – | – | – | – | 34.5 ± 2.4 μmol/min/g, dry weight | 2.4 ± 0.2 mg/min/g, dry weight | 27.5% | 52% | results similar to those of the sodium tanshinone IIA sulfonate 1.5 hydrate
– | – | – | COc1ccc(CCN(C)CCCC(C#N)(c2ccc(OC)c(OC)c2)C(C)C)cc1OC (stereo not drawn) [Iproveratril, reference compound] | – | – | – | – | – | – | 36.9 ± 2.5 μmol/min/g, dry weight | 2.6 ± 0.2 mg/min/g, dry weight | 22.5% | 48% | –
